# Earlier results, collected in patent US20200330378A1, “TASTE-ENHANCED C[…] EMULSION SYRUP COMPOSITIONS” (ICDPHARMA LTD., priority 2018, published 2020).
# Columns and labels:
# [1] = subjects given THC
# [2] = system: human lung tumors implanted into rats and mice
# [3] = patients with insomnia; 160 mg dose of CBD compared to placebo
# [4] = 75-300 mg of CBD taken daily
SMILES,amount of time to fall asleep [1],reduction in tumor mass and volume ([2]; human lung tumors implanted into rats and mice),reduction of cancerous lesions in the lungs ([2]; rats and mice),length of sleep [3],symptoms of REM sleep behavior disorder [4]
"CCCCCc1cc(O)c2c(c1)OC(C)(C)[C@@H]1CCC(C)=C[C@@H]21 [THC, tetrahydrocannabinol]",significant decrease,≤ 50%,around 60%,,
"C=C(C)[C@@H]1CCC(C)=C[C@H]1c1c(O)cc(CCCCC)cc1O [CBD, cannabidiol]",,,,increased,reduce or eliminate entirely
